Two compounds from US20240041042A1, “1-(PYRIDYL)-5-AZINYLPYRAZOLE DERIVATIVES, AND THEIR USE FOR CONTROL OF UNDESIRED PLANT GROWTH” (Bayer Aktiengesellschaft, priority 2020, published 2024) can be followed below.

Holding throughout (type): in vivo
The subject of series [1] is Echinochloa crus-galli (ECHCG). Put plainly: Pre-emergence herbicidal action against ECHCG. To be noted: dosage 320 g/ha. The gist of the method:
(§1)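 Pre-emergence soil-surface spray, WP/EC formulation, 0.5% additive, 600 l/ha water, rates of 320 g/ha or lower. Greenhouse, ~3 wk. Visual score, % of untreated control (100% = plants dead, 0% = like control).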

The test system of series [2] is Lolium rigidum (LOLRI). Put plainly: Pre-emergence herbicidal action against LOLRI. The gist of the method:
as §1

The subject of series [3] is Digitaria sanguinalis (DIGSA). Put plainly: Pre-emergence herbicidal action against DIGSA. The gist of the method: as §1
Series [4] concerns Echinochloa crus-galli (ECHCG). Put plainly: Post-emergence herbicidal action against ECHCG. The note with it: dosage 320 g/ha. An outline of the steps:
(§2)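 Post-emergence greenhouse spray, one-leaf stage, 600 l/ha water plus 0.5% additive; WP or EC formulations; application rates 320 g/ha or lower. Visual % damage vs untreated controls at ~3 weeks.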

Series [5] has as its system Polygonum convolvulus (POLCO). In words: Post-emergence herbicidal action against POLCO. The note with it: dosage 320 g/ha. The gist of the method:
as §2

In series [6] the test system is Viola tricolor (VIOTR). In words: Post-emergence herbicidal action against VIOTR. An outline of the steps:
as §2

Series [7] concerns Zea mays (ZEAMX). To be noted: crop plant compatibility, effect vs untreated controls. The gist of the method:
(§3)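 Percent effect on the crop was judged by eye against untreated controls, where 0% means like control and 100% means dead plants. Plants had been sprayed post-emergence at the one-leaf stage and then kept under optimum greenhouse conditions for about 3 weeks.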

Series [8] has as its system Oryza sativa (ORYSA). To be noted: crop plant compatibility, effect in comparison to untreated controls. An outline of the steps: as §3
Series [9] concerns Alopecurus myosuroides (ALOMY). In words: Pre-emergence herbicidal action against ALOMY. The note with it: 320 g/ha; scored visually after about 3 weeks; 100% = plants have died. An outline of the steps: as §1
For series [10], the system named is Amaranthus retroflexus (AMARE). In words: Pre-emergence herbicidal action against AMARE. To be noted: 320 g/ha, visual scoring after about 3 weeks vs untreated controls. An outline of the steps:
as §1

Another series has as its system Avena fatua (AVEFA). In words: Post-emergence herbicidal action against AVEFA. To be noted: visual rating about 3 weeks after treatment. The gist of the method: as §2
Series [11] has as its system Alopecurus myosuroides (ALOMY). In words: Post-emergence herbicidal action against ALOMY. To be noted: visual rating about 3 weeks after treatment vs untreated controls (100% = plants have died, 0% = like control plants). The gist of the method: as §2
For series [12], the system named is Amaranthus retroflexus (AMARE). Put plainly: Post-emergence herbicidal action against AMARE. An outline of the steps:
as §2

The subject of series [13] is Verconica persica (VERPE). Put plainly: Post-emergence herbicidal action against VERPE. The note with it: 320 g/ha, VERPE. The gist of the method:
as §2

Series [14] deals with Pharbitis purpurea (PHBPU). In words: Post-emergence herbicidal action against PHBPU. The gist of the method: as §2
In series [15] the test system is Setaria viridis (SETVI). Put plainly: Pre-emergence herbicidal action against SETVI. The note with it: dosage 320 g/ha. An outline of the steps:
as §1

The test system of series [16] is Zea mays (ZEAMX). The note with it: pre-emergence, 80 g/ha, crop plant compatibility, in comparison to untreated controls. An outline of the steps: (§4)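 Crop injury rated visually in percent against untreated plants roughly 3 weeks after treatment (0% no effect, 100% plants dead). Compounds, as WP or EC with 0.5% additive in 600 l/ha water, were applied to the covering soil right after sowing; greenhouse growth. Suffixes a, b, c denote different dosages.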

The subject of series [17] is Oryza sativa (ORYSA). The note with it: pre-emergence, 80 g/ha, crop plant compatibility, in comparison to untreated controls. The gist of the method: as §4
The subject of series [18] is Verconica persica (VERPE). Put plainly: Pre-emergence herbicidal action against VERPE. To be noted: dosage 320 g/ha. The gist of the method: as §1
In series [19] the test system is Setaria viridis (SETVI). Put plainly: Post-emergence herbicidal action against SETVI. The gist of the method:
as §2

The test system of series [20] is Matricaria inodora (MATIN). In words: Pre-emergence herbicidal action against MATIN. To be noted: dosage 320 g/ha. The gist of the method: as §1
Series [21] has as its system Digitaria sanguinalis (DIGSA). In words: Post-emergence herbicidal action against DIGSA. The note with it: 320 g/ha, visual rating about 3 weeks after treatment. The gist of the method:
as §2

In series [22] the test system is Lolium rigidum (LOLRI). In words: Post-emergence herbicidal action against LOLRI. To be noted: dosage 320 g/ha. An outline of the steps:
as §2

Series [23] relates to Viola tricolor (VIOTR). In words: Pre-emergence herbicidal action against VIOTR. The note with it: 320 g/ha, Viola tricolor. An outline of the steps:
as §1

For series [24], the system named is Matricaria inodora (MATIN). In words: Post-emergence herbicidal action against MATIN. To be noted: dosage 320 g/ha. An outline of the steps:
as §2

The mark [25] stands for this setting: 320 g/ha, visual rating about 3 weeks after treatment.

Like-named read-outs stand apart in the source and are kept apart here.

`O=C(O)COc1nn(-c2nc(F)ccc2F)c(-c2ccc(F)nc2)c1C1CC1` [Example I-302]: the “Pre-emergence action against ECHCG in %” value in series [1] was found to be 90%. Also, the “Pre-emergence action against LOLRI in %” value in the series with Lolium rigidum (LOLRI) [2] (dosage 80 g/ha) amounted to 80%; in the series with Lolium rigidum (LOLRI) [2] (dosage 320 g/ha) it was 90%. The “Pre-emergence action against DIGSA in %” value in series [3] (80 g/ha, visual scoring after about 3 weeks vs untreated controls) is 90%; in series [3] (dosage 320 g/ha) it was 100%. In [4], the “Post-emergence action against ECHCG in %” value stood at 80%. In addition, the “Post-emergence action against POLCO in %” value in [5] was found to be 80%. Moreover, in the series on Viola tricolor (VIOTR) [6] (320 g/ha), the “Post-emergence action against VIOTR in %” value turned out to be 80%. Besides, the “Post-emergence action against ZEAMX in %” value in the series with Zea mays (ZEAMX) [7] (80 g/ha) is reported as 0%; with Zea mays (ZEAMX) [7] (320 g/ha) it was 10%. Moreover, the “Post-emergence action against ORYSA in %” value in the series with Oryza sativa (ORYSA) [8] (80 g/ha) worked out at 20%. Besides, the “Pre-emergence action against ALOMY” value in series [9] worked out at 90%. In addition, in [10], the “Pre-emergence action against AMARE in %” value is 90%. Also, the “Post-emergence action against AVEFA in %” value in the series on Avena fatua (AVEFA) (80 g/ha) and in the series with Avena fatua (AVEFA) (320 g/ha) was 80% each time. For the same compound, the “Post-emergence action against ALOMY in %” value in series [11] (80 g/ha) was 80%; in series [11] (320 g/ha), 90%. Besides, the “Post-emergence action against AMARE in %” value was found to be 80% in series [12] (80 g/ha, visual rating about 3 weeks after treatment vs untreated controls (100% = plants have died, 0% = like control plants)) and 90% in series [12] (setting [25]). Also, the “Post-emergence action against VERPE in %” value in [13] is recorded as 80%. The “Post-emergence action against PHBPU in %” value in series [14] (dosage 320 g/ha) was 80%. Also, in the series on Setaria viridis (SETVI) [15], the “Pre-emergence action against SETVI in %” value came out at 100%. Further, the “Pre-emergence action against ZEAMX in %” value with Zea mays (ZEAMX) [16] was 10%. The “Pre-emergence action against ORYSA in %” value in the series with Oryza sativa (ORYSA) [17] came out at 20%. In [18], the “Pre-emergence action against VERPE in %” value came to 90%. Moreover, the “Post-emergence action against SETVI in %” value with Setaria viridis (SETVI) [19] (dosage 80 g/ha) was 80%; with Setaria viridis (SETVI) [19] (dosage 320 g/ha), 90%. For the same compound, the “Pre-emergence action against MATIN in %” value in series [20] is given as 90%. For the same compound, the “Post-emergence action against DIGSA in %” value in [21] stood at 80%. Also, the “Post-emergence action against LOLRI in %” value in the series with Lolium rigidum (LOLRI) [22] is recorded as 80%. In addition, the “Pre-emergence action against VIOTR in %” value with Viola tricolor (VIOTR) [23] is on record as 90%.
`COC(=O)CCOC(=O)COc1nn(-c2ccccn2)c(-c2ccc(Cl)nc2)c1Br` [Example I-246]: the “Pre-emergence action against DIGSA in %” value in series [3] (dosage 320 g/ha) is 90%. For the same compound, the “Post-emergence action against POLCO in %” value in series [5] is 80%. For the same compound, the “Post-emergence action against VIOTR in %” value with Viola tricolor (VIOTR) [6] (80 g/ha) and in the series with Viola tricolor (VIOTR) [6] (320 g/ha) was 80% each time. Besides, the “Post-emergence action against ZEAMX in %” value in the series with Zea mays (ZEAMX) [7] (80 g/ha) is reported as 10%. In addition, the results for the “Post-emergence action against ORYSA in %” value in the series on Oryza sativa (ORYSA) [8] (80 g/ha) and in the series with Oryza sativa (ORYSA) [8] (320 g/ha) were 0% and 10%, respectively. Moreover, the “Pre-emergence action against AMARE in %” value in series [10] was 90%. Besides, the “Post-emergence action against AMARE in %” value in [12] (setting [25]) was found to be 80%. The “Post-emergence action against VERPE in %” value in series [13] was determined as 80%. In addition, the “Post-emergence action against PHBPU in %” value in series [14] (dosage 80 g/ha) and in [14] (dosage 320 g/ha) was 80% throughout. Further, the “Post-emergence action against MATIN in %” value in [24] is reported as 80%. In addition, in the series on Zea mays (ZEAMX) [16], the “Pre-emergence action against ZEAMX in %” value was 20%. For the same compound, the “Pre-emergence action against ORYSA in %” value in the series on Oryza sativa (ORYSA) [17] is 0%. Moreover, in [18], the “Pre-emergence action against VERPE in %” value was found to be 80%.
